From PubChem BioAssay (NCI) come the findings set out here.

Some test systems named below: A549 NSCLC; CAKI-1 renal; HCT-116 colon; HCT-15 colon; HOP-92 NSCLC; NCI-H226 lung; NCI-H23 lung; OVCAR-8 ovarian; RPMI-8226 leukemia; SF-268 CNS; SF-295 CNS; SN12C renal; U251 CNS; UACC-257 melanoma; UACC-62 melanoma.
Assay in all cases: NCI tumour cell line growth inhibition, 48 h

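Interpolation was linear, between the two tested concentrations surrounding the appropriate level; five concentrations were tested over 48 hours in 96-well plates. The concentration for full growth arrest is given as TGI.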

With `CCO/C(O)=C(/C(=N)N1CCOCC1)C(=O)NC(C)C`, the TGI in the assay with A549 NSCLC, in the assay with CAKI-1 renal, with HCT-116 colon, with HCT-15 colon, with HOP-92 NSCLC and in the assay with NCI-H226 lung was over 100 µM throughout. The TGI in the assay on NCI-H23 lung, in the assay on OVCAR-8 ovarian, in the assay with RPMI-8226 leukemia, in the assay with SF-268 CNS, with SF-295 CNS and in the assay with SN12C renal was over 100 µM in each case. For the same compound, the TGI with U251 CNS, in the assay with UACC-257 melanoma and in the assay with UACC-62 melanoma was over 100 µM in each case.

`C/C(=C\COP(=O)(O)OP(=O)(O)O)CCCCCCOCc1ccccc1`: the TGI in the assay on A549 NSCLC, in the assay on CAKI-1 renal, with HCT-116 colon, with HCT-15 colon, with HOP-92 NSCLC and in the assay with NCI-H226 lung was over 100 µM each time. Also, the TGI with NCI-H23 lung, in the assay with OVCAR-8 ovarian, in the assay on RPMI-8226 leukemia, in the assay on SF-268 CNS, with SF-295 CNS and in the assay with SN12C renal was over 100 µM in each case. Further, the TGI with U251 CNS, with UACC-257 melanoma and with UACC-62 melanoma was over 100 µM in each case.

Turning to `c1ccc2sc(SSSc3nc4ccccc4s3)nc2c1`, the TGI in the assay on A549 NSCLC, in the assay on CAKI-1 renal, with HCT-116 colon, in the assay with HCT-15 colon, in the assay on HOP-92 NSCLC and in the assay on NCI-H226 lung was over 100 µM in each case. The TGI in the assay with NCI-H23 lung, in the assay with OVCAR-8 ovarian, in the assay with RPMI-8226 leukemia, in the assay with SF-268 CNS, in the assay on SF-295 CNS and in the assay on SN12C renal was over 100 µM each time. Besides, the TGI in the assay with U251 CNS, in the assay with UACC-257 melanoma and with UACC-62 melanoma was over 100 µM in each case.

`C=CCCCCCCCCCP(=O)(c1ccccc1)c1ccc2c(c1)OCCOCCOCCOCCO2` (stereo unspecified): the TGI with A549 NSCLC is 28.1 µM; in the assay on CAKI-1 renal, over 100 µM; in the assay with HCT-116 colon, 25.1 µM; in the assay on HCT-15 colon, 28.2 µM; with HOP-92 NSCLC it was over 100 µM; in the assay on NCI-H226 lung it was 33.9 µM. Moreover, the TGI in the assay on NCI-H23 lung came to 29.7 µM; in the assay on OVCAR-8 ovarian, 30.3 µM; in the assay on RPMI-8226 leukemia, 31.8 µM; with SF-268 CNS, 29.5 µM; in the assay with SF-295 CNS, 28.5 µM; with SN12C renal, 32.4 µM. Besides, the TGI in the assay on U251 CNS was determined as 29.3 µM; in the assay on UACC-257 melanoma, 30.6 µM; in the assay on UACC-62 melanoma, 29.4 µM.

Regarding `Cc1cc(=O)oc2c1cc1ccc3cccc4ccc2c1c34`, the TGI in the assay on CAKI-1 renal, with HCT-15 colon, in the assay with HOP-92 NSCLC, in the assay on NCI-H226 lung, in the assay with NCI-H23 lung and in the assay with OVCAR-8 ovarian was over 100 µM each time. The TGI with RPMI-8226 leukemia, in the assay on SF-268 CNS, in the assay with SF-295 CNS, in the assay on SN12C renal, in the assay on U251 CNS and in the assay on UACC-62 melanoma was over 100 µM each time.

On to `C=C(C)[C@H]1CC[C@@]23O[C@@H]2[C@@H](C[C@@]2(C)CC(=O)[C@H](CC(=O)C1)O2)OC(=O)[C@@]12CC[C@H](C(=C)C)CC(=O)C[C@H]4O[C@](C)(CC4=O)C[C@@H](OC3=O)[C@@H]1O2`, for which the TGI in the assay with A549 NSCLC, with CAKI-1 renal, in the assay on HCT-116 colon, with HCT-15 colon, in the assay with HOP-92 NSCLC and in the assay on NCI-H226 lung was over 100 µM in each case. In addition, the TGI in the assay with NCI-H23 lung, in the assay on OVCAR-8 ovarian, with RPMI-8226 leukemia, in the assay with SF-295 CNS, in the assay with SN12C renal and with U251 CNS was over 100 µM each time. Besides, the TGI in the assay with UACC-257 melanoma and in the assay with UACC-62 melanoma was over 100 µM each time.

On to `CSC1=NN(C(C)=O)C(C(OC(C)=O)C(OC(C)=O)C(OC(C)=O)C(COC(C)=O)OC(C)=O)S1` (stereo unspecified), for which the TGI with A549 NSCLC, in the assay with CAKI-1 renal, in the assay on HCT-116 colon, in the assay on HCT-15 colon, in the assay on HOP-92 NSCLC and in the assay on NCI-H226 lung was over 100 µM each time. The TGI with NCI-H23 lung, in the assay with OVCAR-8 ovarian, in the assay on RPMI-8226 leukemia, in the assay on SF-268 CNS, with SF-295 CNS and in the assay with SN12C renal was over 100 µM each time. Moreover, the TGI in the assay on U251 CNS, in the assay on UACC-257 melanoma and in the assay on UACC-62 melanoma was over 100 µM in each case.

For `CN(C)[C@@H]1C(=O)C(C(=O)NCNc2nc3n[nH]nc3c(=O)[nH]2)=C(O)[C@@]2(O)C(=O)C3=C(O)c4c(O)cccc4[C@@](C)(O)[C@H]3C[C@@H]12`, the TGI is over 100 µM in the assay with A549 NSCLC; over 100 µM in the assay with CAKI-1 renal; 24.7 µM with HCT-116 colon; over 100 µM with HCT-15 colon; over 30 µM in the assay with HOP-92 NSCLC; 56.9 µM with NCI-H226 lung. In addition, the TGI in the assay on NCI-H23 lung was over 100 µM; in the assay on OVCAR-8 ovarian, over 100 µM; in the assay with RPMI-8226 leukemia, 6.7 µM; in the assay with SF-268 CNS, over 92.2 µM; with SF-295 CNS it was over 100 µM; in the assay with SN12C renal, over 91.2 µM. Moreover, the TGI with U251 CNS is over 61.3 µM; in the assay on UACC-257 melanoma, over 87.8 µM; in the assay on UACC-62 melanoma, 7.59 µM.

For `CC(=O)NS(=O)(=O)c1ccc(NCc2cccc3c(=O)c4ccc(Cl)cc4oc23)cc1`, the TGI in the assay on A549 NSCLC was over 100 µM; in the assay with CAKI-1 renal, 69.6 µM; in the assay with HCT-116 colon, over 100 µM; with HCT-15 colon it was over 55.4 µM; with HOP-92 NSCLC, 69.7 µM; in the assay with NCI-H226 lung, over 100 µM. The TGI is over 71.6 µM in the assay with NCI-H23 lung; over 49.1 µM with OVCAR-8 ovarian; over 100 µM with RPMI-8226 leukemia; over 100 µM in the assay on SF-268 CNS; over 100 µM in the assay on SF-295 CNS; over 100 µM with SN12C renal. In addition, the TGI in the assay with U251 CNS, with UACC-257 melanoma and with UACC-62 melanoma was over 100 µM each time.
